The values that follow come from PMC8838982 (Bioorganic chemistry, 2021).

Read-outs that look alike come from different tables or passages of the source.

Assay [1] has as its target Pandemic H1N1 N-terminal PA endonuclease (PAN) (Influenza A virus, UniProt C3W5S0). Put plainly: FRET-based. In kind it is biochemical.
Assay [2] deals with influenza virus polymerase (Influenza A virus, UniProt P03433). Put plainly: cell-based. In kind it is cell-based, influenza virus A/PR/8/34.
Setting [3] is: Inhibition of polymerase activity EC50.
Where [4] appears, read: read-out: Inhibition of polymerase activity EC50.

Turning to `O=C1c2c(ccc(O)c2O)CN1Cc1ccccc1` [Compound 14, 2-benzyl-6,7-dihydroxyisoindolin-1-one], the IC50 (in general, the concentration that gives 50% inhibition) in assay [1] fell in the range of 0.023 to 0.046 µM. Also, the half-maximal effective concentration (EC50) (as a rule, the concentration at which the effect is half-maximal) in assay [2] (setting [3]) came to 12 µM.

For `O=C1c2c(ccc(O)c2O)CN1Cc1ccc(F)c(Cl)c1` [Compound 15, 2-(3-chloro-4-fluorobenzyl)-6,7-dihydroxyisoindolin-1-one], in assay [1], the IC50 lay within 0.023 to 0.046 µM. In assay [2], the “EC50/IC50 ratio (cellular versus enzyme assay)” value came to 145. In assay [2] (setting [3]), this molecule returned a concentration for a half-maximal effect (EC50) of 3.6 µM.

On to `Cc1ccc(CN2Cc3ccc(O)c(O)c3C2=O)cc1` [Compound 16, 2-(4-methylbenzyl)-6,7-dihydroxy-isoindolin-1-one], for which, in assay [2] (setting [4]), the EC50 is 4.1 µM.

Take `O=C1c2c(ccc(O)c2O)CN1Cc1ccc(O)cc1` [Compound 17, 2-(4-hydroxybenzyl)-6,7-dihydroxy-isoindolin-1-one]: in assay [1], the IC50 was 0.023 to 0.046 µM. The “Fold increase in EC50 compared to wild-type” value in assay [2] is recorded as 1.0 fold. This molecule also yielded a concentration for a half-maximal effect (EC50) in assay [2] (setting [3]) of 4.2 µM.

In the case of `O=C1c2c(ccc(O)c2O)CN1Cc1ccc(F)cc1` [Compound 18, 2-(4-fluorobenzyl)-6,7-dihydroxyisoindolin-1-one], the IC50 in assay [1] lay in the range of 0.023 to 0.046 µM. The molecule further yielded an EC50 in assay [2] (setting [3]) of 8.2 µM.

Regarding `O=C1c2c(ccc(O)c2O)CN1Cc1ccc(C(F)(F)F)cc1` [Compound 19, 2-(4-(trifluoromethyl)benzyl)-6,7-dihydroxy-isoindolin-1-one], the “Reduction of PAN inhibitory activity compared to the 4-F analogue 18” value in assay [1] (factor, relative to 18) is reported as 9 fold. The same molecule came in with an EC50 in assay [2] (setting [3]) of 19 µM.

The molecule `O=C1c2c(ccc(O)c2O)CN1Cc1ccc([N+](=O)[O-])cc1` [Compound 20, 2-(4-nitrobenzyl)-6,7-dihydroxy-isoindolin-1-one] registered a half-maximal inhibitory concentration (IC50) in assay [1] of 0.023 to 0.046 µM. Further, the response in assay [2] (setting [3]) was half-maximal at 28 µM (EC50).

In assay [1], `O=C1c2c(ccc(O)c2O)CN1Cc1ccc2ccccc2c1` [Compound 21, 2-(naphthalen-2-ylmethyl)-6,7-dihydroxy-isoindolin-1-one] came in with an IC50 of 0.03 µM. The molecule also displayed an EC50 in assay [2] (setting [3]) of 5.4 µM.

Molecule `O=C1c2c(ccc(O)c2O)CN1Cc1cccc2ccccc12` [Compound 22, 2-(naphthalen-1-ylmethyl)-6,7-dihydroxy-isoindolin-1-one] returned an EC50 in assay [2] (setting [3]) of 26 µM.

`O=C1c2c(ccc(O)c2O)CN1CCc1ccc(O)cc1` [Compound 23, 2-(4-hydroxyphenethyl)-6,7-dihydroxy-isoindolin-1-one]: in assay [2] (setting [4]), the EC50 stood at 19 µM.

For `NC(=O)c1ncn([C@@H]2O[C@H](CO)[C@@H](O)[C@H]2O)n1` [Ribavirin, ribavirin], the concentration for a half-maximal effect (EC50) in assay [2] (setting [3]) worked out at 11 µM.

With baloxavir acid [BXA], the “Fold increase in EC50 compared to wild-type” value in assay [2] came out at 1.0 fold. Also, in assay [2] (setting [4]), the half-maximal effective concentration (EC50) was found to be 0.0016 µM.
